Test results from patent publication US20130267474A1, “NOVEL PHYTOCHEMICALS FROM EXTRACTS OF MAPLE SYRUPS AND MAPLE TREES AND USES THEREOF” (UNIVERSITY OF RHODE ISLAND, priority 2010, published 2013).
Where two headings read alike, the source gives them in different places.

What was measured:
[1] = DPPH radical scavenging (antioxidant) assay; assay type: biochemical; settings: Table 10; mean ± standard deviation; 30 min, 515 nm; read-out: IC50 (μM), DPPH radical scavenging
Experimental: The DPPH radical scavenging activity of ascorbic acid (vitamin C) and the synthetic commercial antioxidant, butylated hydroxytoluene (BHT) are also assayed as positive controls (see Table 10). […] Absorbance is determined after 30 min at 515 nm, and the scavenging capacity (SC) is calculated as SC %=[(A0−A1/A0)]×100, where A0 is the absorbance of the reagent blank and A1 is the absorbance of the test samples. The control contained all reagents except the compounds, and all tests are performed in triplicate.
Absorbance is determined after 30 min at 515 nm, and the scavenging capacity (SC) is calculated as SC %=[(A0−A1/A0)]×100 where A0 is the absorbance of the reagent blank, and A1 is the absorbance with test samples. The control contained all reagents except the compounds and all tests are performed in triplicate.

[2] = tested on: HT-29 (human colon adenocarcinoma); experiment: MTS cytotoxicity / antiproliferative assay; assay type: cell-based
Experimental: (§1) Cell lines included three human colon cancer cells: HT-29 (human colon adenocarcinoma), HCT116 (human colon carcinoma) and Caco-2 (human epithelial colorectal adenocarcinoma). In addition, normal human colon cells are included: CCD-^18Co (human colon fibroblasts). All cell lines are obtained from the American Type Culture Collection (ATCC, Rockville, Md., USA) and maintained at the University of Rhode Island.
(§2) The assay is carried out to measure the IC50 values for samples. […] Test samples and a positive control, etoposide 4 mg/mL (Sigma), are solubilized in DMSO by sonication. […] Control wells are also included on all plates. […] Each point on the curve is […]. Data (see tables 6 to 9) are expressed as mean±SE for three replications on each cell line.

[3] = tested on: HCT-116 (human colon carcinoma); experiment: MTS cytotoxicity / antiproliferative assay; assay type: cell-based
Experimental: as §1, §2

[4] = tested on: Caco-2 (human epithelial colorectal adenocarcinoma); experiment: MTS cytotoxicity / antiproliferative assay; assay type: cell-based
Experimental: as §1, §2

[5] = Homo sapiens, HT-29, 48 h, read-out: Antiproliferative activity HT-29 48 h (IC50), 48 h, pure isolated compounds
[6] = Homo sapiens, HT-29, 72 h, 72 h, pure isolated compounds, read-out: Antiproliferative activity HT-29 72 h (IC50)
[7] = Homo sapiens, HCT-116, 48 h, read-out: Antiproliferative activity HCT-116 48 h (IC50), 48 h, pure isolated compounds
[8] = Homo sapiens, HCT-116, 72 h, 72 h, pure isolated compounds, read-out: Antiproliferative activity HCT-116 72 h (IC50)
[9] = Homo sapiens, HCT-116, 72 h, 72 h, range given for the group, read-out: IC50 against HCT-116 cells at 72 h (activity ranking)

**Q.** Which IC50 [1] does the source give for `COc1cc(C(O)C(CO)Oc2ccc(C(O)C(O)CO)cc2OC)ccc1O` (stereo not drawn) [compound 28] here?
**A.** 814 ± 37.7 µM

**Q.** With `COc1cc([C@@H](O)[C@@H](CO)Oc2ccc(CCCO)cc2OC)ccc1O` [compound 29, threo-guaiacylglycerol-β-O-4′-dihydroconiferyl alcohol] as the compound, how does the IC50 [1] read?
**A.** 139 ± 13.3 µM

**Q.** Which IC50 [1] does the source give for `COc1cc(C(O)C(CO)Oc2c(OC)cc(CCCO)cc2OC)ccc1O` (stereo not drawn) [compound 30, erythro-1-(4-hydroxy-3-methoxyphenyl)-2-[4-(3-hydroxypropyl)-2,6-dimethoxyphenoxy]-1,3-propanediol] here?
**A.** 904 µM

**Q.** With `Oc1ccc(O)c(O)c1` [compound 52, 4-hydroxycatechol] as the compound, how does the IC50 [2, 5] read?
**A.** 110 ± 2.3 µM

**Q.** And the IC50 [2, 6]?
**A.** 100 ± 1.5 µM

**Q.** And the IC50 [3, 7]?
**A.** 95 ± 3.4 µM

**Q.** And the IC50 [3, 8]?
**A.** 57.7 ± 3.4 µM

**Q.** What about the IC50 [3, 9] of the same compound?
**A.** 42 to 67 µM

**Q.** And the IC50 ([4]; Homo sapiens, Caco-2, 48 h, read-out: Antiproliferative activity Caco-2 48 h (IC50), 48 h, pure isolated compounds)?
**A.** 89.2 ± 1.9 µM

**Q.** What about the IC50 ([4]; Homo sapiens, Caco-2, 72 h, 72 h, pure isolated compounds, read-out: Antiproliferative activity Caco-2 72 h (IC50)) of the same compound?
**A.** 78.6 ± 1.2 µM

**Q.** What does the source list for `COc1cc(CCCO)ccc1OC(CO)C(O)c1ccc(OC2OC(C)C(O)C(O)C2O)c(OC)c1` (stereo not drawn) [compound 55]?
**A.** IC50 [2, 5]: 128.2 ± 1.1 µM; IC50 [2, 6]: 121 ± 1.3 µM; IC50 [3, 7]: 119 ± 1.4 µM; IC50 [3, 8]: 104 ± 1.7 µM; IC50 [3, 9]: 94 to 110 µM

**Q.** Which “HT-29 48 h IC50” value ([2]; 48 h, ginnalins) does the source give for `O=C(O[C@H]1CO[C@H](CO)[C@@H](O)[C@@H]1O)c1cc(O)c(O)c(O)c1` [compound 72, ginnalin-C] here?
**A.** 33.8 ± 2.0 µg/mL

**Q.** And the “HT-29 72 h IC50” value ([2]; 72 h, ginnalins)?
**A.** 30.1 ± 1.3 µg/mL

**Q.** And the IC50 ([2]; Table 6 maple compounds, 72 h, unit inferred, read-out: HT-29 72 h(IC50))?
**A.** 95.4 µM

**Q.** And the IC50 ([2]; read-out: HT-29 48 h(IC50), Table 6 maple compounds, 48 h, unit inferred)?
**A.** 107 µM

**Q.** And the “HCT-116 48 h IC50” value ([3]; 48 h, ginnalins)?
**A.** 27.0 ± 1.9 µg/mL

**Q.** What about the “HCT-116 72 h IC50” value ([3]; 72 h, ginnalins) of the same compound?
**A.** 22.3 ± 2.4 µg/mL

**Q.** And the IC50 ([3]; Table 6 maple compounds, 72 h, unit inferred, read-out: HCT-116 72 h(IC50))?
**A.** 70.7 µM

**Q.** And the IC50 ([3]; read-out: HCT-116 48 h(IC50), Table 6 maple compounds, 48 h, unit inferred)?
**A.** 86.5 µM

**Q.** What about the “Caco-2 48 h IC50” value ([4]; 48 h, ginnalins) of the same compound?
**A.** 35.0 ± 1.4 µg/mL

**Q.** What about the “Caco-2 72 h IC50” value ([4]; 72 h, ginnalins) of the same compound?
**A.** 29.8 ± 1.2 µg/mL

**Q.** What about the IC50 ([4]; Table 6 maple compounds, 72 h, unit inferred, read-out: Caco-2 72 h(IC50)) of the same compound?
**A.** 94.4 µM

**Q.** What about the IC50 ([4]; read-out: Caco-2 48 h(IC50), Table 6 maple compounds, 48 h, unit inferred) of the same compound?
**A.** 111 µM

**Q.** For `O=C(O)/C=C/c1ccc(O)cc1` [p-Coumaric Acid], which IC50 ([3]; Homo sapiens, HCT-116, 72 h, Table 6 maple compounds, 72 h, unit inferred, read-out: HCT-116 72 h(IC50)) is on record?
**A.** 124 µM

**Q.** With catechaldehyde [compound 14] as the compound, how does the IC50 [1] read?
**A.** 694 ± 110 µM

**Q.** With catechol [compound 23] as the compound, how does the IC50 [1] read?
**A.** 10100 ± 1670 µM

**Q.** With dehydroconiferyl alcohol [compound 3] as the compound, how does the IC50 [1] read?
**A.** 925 ± 179 µM

**Q.** For gallic acid [compound 17], which IC50 [1] is on record?
**A.** 703 ± 141 µM

**Q.** Which IC50 [1] does the source give for lyoniresinol [compound 1] here?
**A.** 946 ± 58.5 µM

**Q.** With syringaldehyde [compound 16] as the compound, how does the IC50 [1] read?
**A.** 2880 ± 44 µM

**Q.** Which IC50 [1] does the source give for syringic acid [compound 19] here?
**A.** 258 ± 33.8 µM

**Q.** For “trimethyl gallic acid methyl ester [compound 18]”, which IC50 [1] is on record?
**A.** 112 ± 5.1 µM
